# Experimental data: ChEMBL document CHEMBL5528028, “Discovery of benzopyridone cyanoacetates as new type of potential broad-spectrum antibacterial candidates” (Eur J Med Chem, 2024)
# Active and inactive are the calls of the source. The rule behind the calls is not given here.
# Key:
# [1] = test system: Staphylococcus aureus; assay: Antibacterial activity against methicillin-resistant Staphylococcus aureus assessed growth inhibition by micro broth dilution method; assay type: functional
# [2] = test system: Staphylococcus aureus; assay: Antibacterial activity against Staphylococcus aureus assessed growth inhibition by micro broth dilution method; assay type: functional
# [3] = test system: Staphylococcus aureus; assay: Antibacterial activity against Staphylococcus aureus ATCC 25923 assessed growth inhibition by micro broth dilution method; assay type: functional
# [4] = test system: Staphylococcus aureus; assay: Antibacterial activity against Staphylococcus aureus ATCC 29213 assessed growth inhibition by micro broth dilution method; assay type: functional
# [5] = test system: Enterococcus faecalis; assay: Antibacterial activity against Enterococcus faecalis assessed growth inhibition by micro broth dilution method; assay type: functional
# [6] = test system: Klebsiella pneumoniae; assay: Antibacterial activity against Klebsiella pneumonia assessed growth inhibition by micro broth dilution method; assay type: functional
# [7] = test system: Escherichia coli; assay: Antibacterial activity against Escherichia coli assessed growth inhibition by micro broth dilution method; assay type: functional
# [8] = test system: Escherichia coli; assay: Antibacterial activity against Escherichia coli ATCC 25922 assessed growth inhibition by micro broth dilution method; assay type: functional
# [9] = test system: Pseudomonas aeruginosa; assay: Antibacterial activity against Pseudomonas aeruginosa assessed growth inhibition by micro broth dilution method; assay type: functional
# [10] = test system: Pseudomonas aeruginosa; assay: Antibacterial activity against Pseudomonas aeruginosa ATCC 27853 assessed growth inhibition by micro broth dilution method; assay type: functional
# [11] = test system: Acinetobacter baumannii; assay: Antibacterial activity against Acinetobacter baumannii assessed growth inhibition by micro broth dilution method; assay type: functional
# [12] = test system: Staphylococcus aureus; assay: Bactericidal activity against Staphylococcus aureus ATCC 29213 assessed as time dependent killing at 4 times of MIC measured at 8 hrs; assay type: functional, organism-based
# [13] = test system: Klebsiella pneumoniae; assay: Bactericidal activity against Klebsiella pneumonia assessed as time dependent killing at 4 times of MIC measured at 8 hrs; assay type: functional, organism-based
# [14] = test system: Erythrocyte; assay: Hemolytic activity in human RBC incubated measured upto 128 ug/ml; assay type: toxicity, cell-based; settings: dose < 128 µg/ml
# [15] = test system: Cell membrane; assay: Induction of outer membrane permeability in Klebsiella pneumonia assessed as increase in fluorescence intensity at 2 times of MIC by N-phenyl naphthylamine (NPN) dye based assay; assay type: cell membranes; settings: Klebsiella pneumoniae
# [16] = test system: Cell membrane; assay: Induction of cytoplasmic membrane depolarization in Staphylococcus aureus ATCC 29213 assessed as increase in fluorescence intensity at 2 times of MIC measured upto 40 mins by DiSC35 dye based fluorescence method; assay type: cell membranes
# [17] = test system: Cell membrane; assay: Induction of cytoplasmic membrane depolarization in Klebsiella pneumonia assessed as increase in fluorescence intensity at 2 times of MIC measured upto 40 mins by DiSC35 dye based fluorescence method; assay type: cell membranes; settings: Klebsiella pneumoniae, DISRUPTING AGENT
# [18] = test system: Cell membrane; assay: Induction of disruption of membrane integrity in Staphylococcus aureus ATCC 29213 assessed as leakage of intracellular proteins by Acid Blue 90 based assay; assay type: cell membranes
# [19] = test system: Cell membrane; assay: Induction of disruption of membrane integrity in Klebsiella pneumonia assessed as leakage of intracellular proteins by Acid Blue 90 based assay; assay type: cell membranes; settings: Klebsiella pneumoniae
# [20] = test system: Staphylococcus aureus; assay: Induction of ROS generation in Staphylococcus aureus ATCC 29213 assessed as increase in fluorescence intensity by DCFH-DA based microscopic analysis; assay type: functional, organism-based
# [21] = test system: Klebsiella pneumoniae; assay: Induction of ROS generation in Klebsiella pneumonia assessed as increase in fluorescence intensity by DCFH-DA based microscopic analysis; assay type: functional, organism-based
# [22] = test system: Staphylococcus aureus; assay: Induction of ROS generation in Staphylococcus aureus ATCC 29213 assessed as loss of GSH activity by Ellmans method; assay type: functional, organism-based
# [23] = test system: Klebsiella pneumoniae; assay: Induction of ROS generation in Klebsiella pneumonia assessed as loss of GSH activity by Ellmans method; assay type: functional, organism-based
# [24] = test system: Staphylococcus aureus; assay: Antibacterial activity against Staphylococcus aureus ATCC 29213 assessed as decrease in relative metabolic activity at 4 times of MIC by Alamar Blue assays; assay type: functional, organism-based
# [25] = test system: Klebsiella pneumoniae; assay: Antibacterial activity against Klebsiella pneumonia assessed as decrease in relative metabolic activity at 4 times of MIC by Alamar Blue assays; assay type: functional, organism-based
# [26] = Thermodynamic solubility of the compound in water; assay type: physicochemical; settings: read-out: Therm_solubility
# [27] = test system: Staphylococcus aureus; assay: Anti-biofilm activity against Staphylococcus aureus ATCC 29213 assessed as relative biofilm clearance rate at 8 times of MIC by crystal violet staining based assay; assay type: functional
# [28] = test system: Klebsiella pneumoniae; assay: Anti-biofilm activity against Klebsiella pneumonia assessed as relative biofilm clearance rate at 8 times of MIC by crystal violet staining based assay; assay type: functional
# [29] = Hemolytic activity in human RBC assessed as hemolytic rate incubated measured upto 64 ug/ml; assay type: toxicity, cell-based, Erythrocyte; settings: human red blood cells (erythrocytes), up to 64 µg/mL, read-out: Activity
Compound,MIC [1],MIC [2],MIC [3],MIC [4],MIC [5],MIC [6],MIC [7],MIC [8],MIC [9],MIC [10],MIC [11],other results
CCOC(=O)C(C#N)c1cc2c(cc1F)c(=O)c(C(=O)O)cn2C1CC1 (configuration not stated),2 µg/mL,0.5 µg/mL,8 µg/mL,0.5 µg/mL,64 µg/mL,0.25 µg/mL,32 µg/mL,0.5 µg/mL,16 µg/mL,4 µg/mL,1 µg/mL,Activity [12]: Active; Activity [13]: Active; Activity [14]: Non-Toxic; Activity [15]: Dose-Dependent Effect; Activity [16]: Active; Activity [17]: Active; Activity [18]: Dose-Dependent Effect; Activity [19]: Dose-Dependent Effect; Activity [20]: Dose-Dependent Effect; Activity [21]: Dose-Dependent Effect; Activity [22]: Dose-Dependent Effect; Activity [23]: Dose-Dependent Effect; Activity [24]: Active; Activity [25]: Active
CCOC(=O)c1cn(Cc2ccc(Cl)c(Cl)c2)c2cc([C-](C#N)C(=O)OCC)c(F)cc2c1=O.[Na+] (configuration not stated),8 µg/mL,64 µg/mL,0.25 µg/mL,0.25 µg/mL,1 µg/mL,0.25 µg/mL,0.25 µg/mL,0.25 µg/mL,4 µg/mL,0.5 µg/mL,1 µg/mL,solubility thermodynamic [26]: 97.3 µg/mL; Activity [27]: 70%; Activity [28]: 70%
CCCCCCCCn1cc(C(=O)OCC)c(=O)c2cc(F)c(C(C#N)C(=O)OCC)cc21 (configuration not stated),8 µg/mL,8 µg/mL,1 µg/mL,0.5 µg/mL,4 µg/mL,0.5 µg/mL,2 µg/mL,2 µg/mL,0.5 µg/mL,0.5 µg/mL,0.5 µg/mL,hemolysis [29]: 50%
CCOC(=O)c1cn(Cc2ccc([N+](=O)[O-])cc2)c2cc(C(C#N)C(=O)OCC)c(F)cc2c1=O.[Na+] (configuration not stated),256 µg/mL,128 µg/mL,1 µg/mL,64 µg/mL,32 µg/mL,128 µg/mL,0.5 µg/mL,128 µg/mL,128 µg/mL,64 µg/mL,128 µg/mL,
